Data as given in patent US8476433B2, “Agent exhibiting the properties of a cognitive function promoter (embodiments)” (Unikorm, priority 2010, dated 2013).

Tests used:
[1] = tested on: learning and memory of mice, scopolamine-induced amnesia; experiment: Conditioned passive avoidance response (CPAR), step down method, in model of amnesia induced by scopolamine and undertraining; format: in vivo; conditions: for Number of animals with CPAR (%): male mice; for effect on learning and memory during scopolamine-induced amnesia: mice, i/p before or immediately after training, tested after 2 hours and 24 hours
From the text: In order to study the activity of the synthesized compounds in vivo one of the most used methodologies of examination and assessment of activation of cognitive functions was used—improvement or easier development of conditioned passive avoidance response (CPAR) in animals. From the time of study of cognitive properties of nootropil and up to the present time, conditioned passive avoidance response (CPAR) is used more often than other behavioral procedures for studying and screening of drugs affecting the processes of learning and memory in rodents. CPAR is used for studying the action of drugs on learning (if the tested drug is administered before a training session), on saving or retention in memory (if the drug is administered after the training) and on memory retrieval (administering drugs before memory testing). This method is also used to study and test substances in models of disorders of learning and memory, caused by experimental brain dysfunction (GABA, cholinergic, induced by cholinergic toxin AF64A), alcohol-benzodiazepine induced, electrocution induced, hypoxia induced and age-related amnesias, inhibition of protein synthesis, etc..
Comparative study of the effects of compounds 1 and 2 on learning and memory of mice in tests of conditioned passive avoidance response (CPAR) in model of amnesia, induced by the administration of scopolamine—a blocker of central cholinergic receptors.
Studies were performed using 470 male mice, body mass 20-22 g, using 20 animals for one dose. CPAR conditioning of mice was performed using step down method, in a cell with electrode floor and avoidance area. Parameters of electric stimulation for animals leaving the safety area were 50 V during 3-5 sec. The criterion of learning and memory was the staying of the animal in the area during 1 minute when testing 2 hours after training and 24 hours after training.
Learning deficit was induced by the administration of scopolamine (1.0 mg/kg, intraperitoneal) 15 minutes before the training and by reduction in the number of animal training sessions to 2 instead of 5 (undertraining).
The duration of the mnemotropic action of the compounds in conditions of learning deficit was assessed by the number of animals in a group (in percents), staying in safety zone (with immobilization).
To assess their action of different phases of memory development (fixation, consolidation and reproduction) the tested compounds were administered before the training (before scopolamine) and immediately after the training. The tested compounds were administered intraperitoneally using 2 schedules: […] and, correspondingly, 5 minutes before scopolamine, second—compounds in the same doses right after the training. Control was parallel in each series of experiments: one control group received saline solution instead of the tested compounds and scopolamine, second control group—scopolamine, using the same schedule and doses.
Statistical analysis was conducted with significance of difference from negative control at p<0.05.

Acute toxicity i/p = conditions: for Therapeutic index LD50/Min. ED: LD50 i/p / minimum effective dose in CPAR; for LD50: in vivo, intraperitoneal
[2] = dose 0.01 mg/kg i/p, scopolamine 1.0 mg/kg i/p amnesia
[3] = dose 0.1 mg/kg i/p, scopolamine 1.0 mg/kg i/p amnesia
[4] = dose 1.0 mg/kg i/p, scopolamine 1.0 mg/kg i/p amnesia
[5] = dose 10.0 mg/kg i/p, scopolamine 1.0 mg/kg i/p amnesia

CN1C(=O)C(=CNc2ccncc2)C(=O)N(C)C1=O [Compound 1, 1,3-dimethyl-5-[(4-pyridylamino)methylene]barbituric acid]
Number of animals with CPAR (%) [1, 2]: 90.0% | Number of animals with CPAR (%) [1, 3]: 80.0% | Number of animals with CPAR (%) [1, 4]: 60.0% | Number of animals with CPAR (%) [1, 5]: 50.0% | effect on learning and memory during scopolamine-induced amnesia [1]: improved learning and memory | Therapeutic index LD50/Min. ED (Acute toxicity i/p): 1530 | LD50 (Acute toxicity i/p): 15.3 ± 2.6 mg/kg

Nc1cc[n+](-c2nccc3c2cc([N+](=O)[O-])c(=O)n3-c2ccccc2)cc1 [Compound 2, 4-amino-1-(3-nitro-2-oxo-1-pheny-1,2-dihydro-1,6-naphthyridin-5-yl)pyridinium chloride]
Number of animals with CPAR (%) [1, 2]: 60% | Number of animals with CPAR (%) [1, 3]: 80% | Number of animals with CPAR (%) [1, 4]: 70% | Number of animals with CPAR (%) [1, 5]: 60% | effect on learning and memory during scopolamine-induced amnesia [1]: improved learning and memory | Therapeutic index LD50/Min. ED (Acute toxicity i/p): 10770 | LD50 (Acute toxicity i/p): 108 ± 14.1 mg/kg

CN1[C@@H]2C[C@@H](OC(=O)[C@H](CO)c3ccccc3)C[C@H]1[C@@H]1O[C@@H]12 [Scopolamine, scopolamine, reference compound]
learning ability (animals staying in safety area) after scopolamine ([1]; scopolamine 1.0 mg/kg i/p 15 minutes before training plus undertraining, average, controls about 80%): 28% | Number of animals with CPAR (%) ([1]; scopolamine alone 1.0 mg/kg i/p (amnesia control group)): 35%
